Where two headings read alike, the source gives them in different places.
Experiments:
[1] = test system: NRF2 (nuclear factor erythroid 2-related factor 2); experiment: NRF2 +/-GSH activation assay (DiscoverX PathHunter NRF2 translocation kit, U2OS cells); assay type: cell-based; settings: for NRF2 activation +GSH Emax / NRF2 activation −GSH Emax: normalised to DMF high control
Procedure: Measuring Compound Activation Effects on the Anti-Inflammatory Transcription Factor NRF2 in DiscoverX PathHunter NRF2 Translocation Kit
Potency and efficacy of compounds of formula (I) against the target of interest to activate NRF2 (nuclear factor erythroid 2-related factor 2) were determined using the PathHunter NRF2 translocation kit (DiscoverX). The NRF2 translocation assay was run using an engineered recombinant cell line, utilising enzyme fragment complementation to determine activation of the Keap1-NRF2 protein complex and subsequent translocation of NRF2 into the nucleus. Enzyme activity was quantified using a chemiluminescent substrate consumed following the formation of a functional enzyme upon PK-tagged NRF2 translocation into the nucleus.
The assay was run under both +/−GSH (glutathione) conditions to determine the sensitivity of the compounds' NRF2-activating abilities to attenuation by GSH.
Additionally, a defined concentration of DMF was used as the ‘High’ control to normalise test compound activation responses to.
U2OS PathHunter eXpress cells were thawed from frozen prior to plating. Following plating, U2OS cells were incubated for 24 hrs (37° C./5% CO2) in commercial kit provided cell medium.
Following 24 hrs of U2OS incubation, cells were directly treated with an appropriate final concentration of compound, for −GSH conditions or, for +GSH conditions, an intermediate plate containing 6× working concentrations of compound stocks was prepared in a 6 mM working concentration of GSH solution (solubilised in sterile PBS). Following a 30 minute compound-GSH pre-incubation (37° C./5% CO2) for +GSH treatment, plated U2OS cells were incubated with an appropriate final concentration of compound and GSH.
Following compound (+/−GSH) treatment, the U2OS plates were incubated for a further 6 hours (37° C./5% CO2) before detection reagent from the PathHunter NRF2 commercial kit was prepared and added to test plates according to the manufacturer's instructions. Subsequently, the luminescence signal detection was measured in a microplate reader (PHERAstar®, BMG Labtech).
Percentage activation was calculated by normalising the sample data to the high and low controls used within each plate (+/−DMF).

[2] = test system: IL-1β cytokine output from THP-1s; experiment: THP-1 AlphaLISA IL-1β cytokine inhibition assay; assay type: cell-based; settings: for IC50: Homo sapiens, THP-1, differentiated THP-1 cells, LPS then nigericin; for IL-1β lowering, result in words: THP-1 IL-1β assay
Outline: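 THP-1 cells differentiated with PMA for 72 h, pre-incubated with compound 30 min, then LPS-primed 24 h and Nigericin-stimulated 1 h (37° C./5% CO2). Supernatant IL-1β measured by AlphaLISA; percentage inhibition normalised to +LPS (high) and −LPS (low) plate controls.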

[3] = Hepatocyte stability assay, mouse; assay type: in vitro ADME; settings: mouse, hepatocytes; for hepatocyte CLint at 10 μM: Hepatocyte stability Clint; for half-life at 10 μM: Hepatocyte stability T½
Source text: (§1) Defrosted cryo-preserved hepatocytes (viability >70%) were used to determine the metabolic stability of a compound via calculation of intrinsic clearance (CIint; a measure of the removal of a compound from the liver in the absence of blood flow and cell binding). Clearance data are particularly important for in vitro work as they can be used in combination with in vivo data to predict the half-life and oral bioavailability of a drug.
(§2) The metabolic stability in hepatocytes assay involves a time-dependent reaction using both positive and negative controls. The cells were pre-incubated at 37° C. then spiked with test compound (and positive control); samples were taken at pre-determined time intervals and were analysed to monitor the change in concentration of the initial drug compound over 60 minutes. A buffer incubation reaction (with no hepatocytes present) acted as a negative control and two cocktail solutions, containing compounds with known high and low clearance values (verapamil/7-hydroxycoumarin and propranolol/diltiazem), acted as positive controls. • 1. The assay was run with a cell concentration of 0.5×10^6 cells/mL in Leibovitz buffer. • 2. All compounds and controls were run in duplicate. • 3. Compound concentration was 10 μM. • 4. All compounds and controls were incubated with both cells and buffer to show turnover was due to hepatic metabolism. • 5. All wells on the incubation plate had 326.7 μL of either cells or buffer added. • 6. Prior to assay, cell and buffer-only incubation plates were preincubated for 10 mins at 37° C. • 7. The assay was initiated by adding compounds, 3.3 μL of 1 mM in 10% DMSO—90% Buffer; final DMSO concentration was 0.1%. • 8. Samples were taken at regular timepoints (0, 5, 10, 20, 40, 60 min) until 60 mins. • 9. Sample volume was 40 μL and was added to 160 μL of crash solvent (acetonitrile with internal standard) and stored on ice. • 10. At the end of the assay, the crash plates were centrifuged at 3500 rpm for 20 mins at 4° C. • 11. 80 μL of clear supernatant was removed and mixed with 80 μL of deionised water before being analysed by LC-MS/MS.
(§3) Raw LC-MS/MS data was exported to, and analysed in, Microsoft Excel for determination of intrinsic clearance. The percentage remaining of a compound was monitored using the peak area of the initial concentration as 100%. Intrinsic clearance and half-life values were calculated using a graph of the natural log of percentage remaining versus the time of reaction in minutes.

[4] = Hepatocyte stability assay, human; assay type: in vitro ADME; settings: human, hepatocytes; for hepatocyte CLint at 10 μM: Hepatocyte stability Clint; for half-life at 10 μM: Hepatocyte stability T½
Source text: as §1, §2, §3

[5] = +GSH, 30 minute compound-GSH pre-incubation, read-out: NRF2 activation +GSH EC50
[6] = −GSH, U2OS PathHunter cells, 6 hours compound treatment, read-out: NRF2 activation −GSH EC50

Structure (SMILES)	EC50 [1, 5] [µM]	NRF2 activation +GSH Emax ([1]; +GSH) [%]	EC50 [1, 6] [µM]	NRF2 activation −GSH Emax ([1]; −GSH) [%]	IC50 [2] [µM]	hepatocyte CLint at 10 μM [3] [µL/min/1e6 cells]	half-life at 10 μM [3] [min]	hepatocyte CLint at 10 μM [4] [µL/min/1e6 cells]	half-life at 10 μM [4] [min]	IL-1β lowering, result in words [2]
C=C(Cc1nnc(CCCCCCCC)s1)C(=O)O [Example 37, 2-((5-octyl-1,3,4-thiadiazol-2-yl)methyl)acrylic acid]	9.5	139	8.4	162	14.6	> 481	< 3	32	40	–
C=C(Cc1nc(C2CCCCCCC2)no1)C(=O)O [Example 63, 2-((3-cyclooctyl-1,2,4-oxadiazol-5-yl)methyl)acrylic acid]	58	49	25.8	114	> 100	23	60	8	169	not effective
C=C(Cc1nc(Cc2ccc(C(F)(F)F)cc2)no1)C(=O)O [Example 42, 2-((3-(4-(trifluoromethyl)benzyl)-1,2,4-oxadiazol-5-yl)methyl)acrylic acid]	> 100	8	> 100	63	27	11	118	< 3	> 460	–
[2H]C([2H])([2H])C([2H])([2H])C([2H])([2H])C([2H])([2H])C([2H])([2H])C([2H])([2H])C([2H])([2H])C([2H])([2H])c1noc(CC(=C)C(=O)O)n1 [Example 34, 2-((3-(octyl-d17)-1,2,4-oxadiazol-5-yl)methyl)acrylic acid]	4.7	167	3.7	222	9.5	374	4	78	18	–
C=C(Cc1nc(CCc2ccc(CCC)cc2)no1)C(=O)O [Example 36, 2-((3-(4-propylphenethyl)-1,2,4-oxadiazol-5-yl)methyl)acrylic acid]	14.2	181	10.1	216	37.5	249	7	23	61	–
C=C(Cc1nc(CCc2ccc(Cl)cc2)no1)C(=O)O [Example 5, 2-((3-(4-chlorophenethyl)-1,2,4-oxadiazol-5-yl)methyl)acrylic acid]	50.4	63	42.4	74	45.3	48	40	8	174	–
C=C(Cc1nc(C(C)(C)CCCCC)no1)C(=O)O [Example 12, 2-((3-(2-methylheptan-2-yl)-1,2,4-oxadiazol-5-yl)methyl)acrylic acid]	61.9	73	53.1	85	> 100	15	90	16	90	not effective
C=C(Cc1nc(Cc2ccc(C(C)(C)C)cc2)no1)C(=O)O [Example 15, 2-((3-(4-(tert-butyl)benzyl)-1,2,4-oxadiazol-5-yl)methyl)acrylic acid]	> 100	33	57.1	41	23.8	31	35	7.5	167	–
C=C(Cc1nc(C(F)(F)c2ccc(I)cc2)no1)C(=O)O [Example 120, 2-((3-(difluoro(4-iodophenyl)methyl)-1,2,4-oxadiazol-5-yl)methyl)acrylic acid]	–	–	–	–	3.6	66	20	10	154	–
C=C(Cc1nc(C2(c3ccc(C4CCC4)cc3)CC2)no1)C(=O)O [Example 131, 2-((3-(1-(4-cyclobutylphenyl)cyclopropyl)-1,2,4-oxadiazol-5-yl)methyl)acrylic acid]	–	–	–	–	7.9	139	11	34	43	–
C=C(Cc1ccc(CCCCCCCC)nn1)C(=O)O [Example 116]	–	–	–	–	27.9	290	5	60	25	–
C=C(Cc1nc(C(F)(F)c2ccc(S(F)(F)(F)(F)F)cc2)no1)C(=O)O [Example 124, 2-((3-(difluoro(4-(pentafluoro-λ^6-sulfaneyl)phenyl)methyl)-1,2,4-oxadiazol-5-yl)methyl)acrylic acid]	–	–	–	–	16.6	55	27	14	105	–

— US12617762B2, “Carboxy derivatives with antiinflamatory properties” (Sitryx Therapeutics Limited, priority 2019, dated 2026)
